Columns and labels:
ERK and AKT = test: Western blot of ERK and AKT activation in HUVEC and hDMVECs; format: cell-based, human; conditions: 40 uM; HUVEC and hDMVECs
Protocol: Cells were allowed to reach 80% confluency in 12-well plates. […] At various time points, plates were taken out of the incubator and kept on ice. Cell monolayers were first washed once with ice-cold PBS before lysis with 250 μl of Pierce RIPA buffer (ThermoFisher Scientific, Rockford, IL) or use 50 mM Tris-HCl (pH 7.6), 150 mM NaCl, 10% Glycerol, 1% NP-40 containing protease/Phosphatase inhibitor cocktail (100×) (Cell signaling, #5872). Lysates were collected and mixed with 4×Bolt LDS Sample Buffer (Novex, Carlsbad, CA) in the presence of Halt protease inhibitors and phosphatase inhibitor cocktail (ThermoFisher scientific, #NP0007). The samples were subjected to SDS-PAGE (Bolt 4-12% Bis-Tris Plus, Invitrogen) using Bolt MES SDS running buffer or NuPAGE 3-8% Tris-Acetate gel using Tris-Acetate SDS running buffer (Novex). HUVECs (passage 6-8) were plated in EBM-2 basal medium (Lonza) with 0.2% FBS. […] Equal amounts of protein lysates were analyzed by SDS-PAGE and blotted with the indicated antibodies. Proteins were transferred using Tris-Glycine buffer with 20% Methanol (Proteonomics grade) (Apex BioResearch Products). Membranes were first incubated with 5% milk in TBST, pH 7.6 (TEKnova, Hollister, CA), followed by blotting with primary and secondary antibodies. […]

A673 = A673 proliferation assay; format: cell-based, human
Protocol: (§1) Proliferation assays with fibroblasts were done in low-glucose DMEM containing 1% FBS, with or without 10 ng/ml bFGF, or 100 ng/ml human EGF and the assay was ended at day 3. ARPE-19 cells were gently lifted with 0.025% trypsin and plated in RtEGM media (Clonetics) containing 2% FBS, L-glutamine, human bFGF and GA-1000. Once cells were attached to plates, serum-free RtEGM media was used to maintain the cultures. For proliferation assays, 1500 human RPE cells were plated into 96-well plates in low-glucose DMEM containing 1% FBS. A673, U87MG, Calu6 and AML12 cells were grown until confluent and were then harvested and re-suspended in appropriate assay media. For proliferation assays, cells were plated at the density of 1000-2000 cells/well in low-glucose DMEM containing 5% FBS or otherwise stated. Bovine pituitary cells (pituitary folliculostellate cells) were isolated as previously described. For proliferation assays with human epidermal keratinocytes, human DMVECs and human dermal fibroblast cells, 1000 cells/well were plated in low-glucose DMEM containing 1% FBS with or without various growth factors. The assay was ended at day 3 for bovine pituitary cells and at day 4 for all the other cell types. […] Four days later, tumor cell growth was measured by the MTS assay (Promega, Madison, WI), a colorimetric assay that measures metabolic activity of viable cells. […]

[1] = system: dermal microvascular endothelial cells (hDMVECs); test: hDMVEC proliferation assay; format: cell-based, human
Protocol: Proliferation assays with BCECs and BRECs were performed. Log-phase growing BCECs or BRECs (passage <10) were trypsinized, re-suspended and seeded in 96-well plates (no coating) in low-glucose DMEM supplemented with 10% bovine calf serum, 2 mM glutamine, and antibiotics (growth medium), at a density of 1200-1500 cells per well in 200 μl volume. All reagents were added at the indicated final concentrations. After 3-6 days, cells were incubated with AlamarBlue for 4 hrs. Fluorescence was measured at 530 nm excitation wavelength and 590 nm emission wavelength. The experiments were repeated at least three times. To create a hypoxic condition, cells were placed in a hypoxia incubator with a mixture of gas consisting of 1% 02, 5% CO2 and 94% Nz. On each 96-well plate, untreated and VEGF-treated (10/ng/ml) wells were included to monitor plate-to-plate variations. 20% methanol or 0.05% DMSO served as negative controls. 0.05% DMSO served as negative controls when Cas was tested in these cells. Human RMVECs and human adult DMVECs were split into Gelatin-coated 96 wells (2000 cells per well) in low glucose DMEM containing 10% FBS. 1200 cells/well was set up for proliferation assay in low glucose media containing FBS. Data was collected at day 4 or 5. HUVEC (p7-10) were grown on gelatin-coated plate until it reached 70-80% confluency.
Proliferation assays with fibroblasts were done in low-glucose DMEM containing 1% FBS, with or without 10 ng/ml bFGF, or 100 ng/ml human EGF and the assay was ended at day 3. ARPE-19 cells were gently lifted with 0.025% trypsin and plated in RtEGM media (Clonetics) containing 2% FBS, L-glutamine, human bFGF and GA-1000. Once cells were attached to plates, serum-free RtEGM media was used to maintain the cultures. For proliferation assays, 1500 human RPE cells were plated into 96-well plates in low-glucose DMEM containing 1% FBS. […] Four days later, tumor cell growth was measured by the MTS assay (Promega, Madison, WI), a colorimetric assay that measures metabolic activity of viable cells. […]

ARPE-19 RPE cells = test: Human RPE cell proliferation assay; format: cell-based
Protocol: as §1

U87MG = U87MG proliferation assay; format: cell-based, human
Protocol: as §1

HUVEC = HUVEC migration assay; format: cell-based, human; conditions: 40 uM ManN alone
Protocol: HUVECs (passage 6-8) were cultured and serum-starved as described in “Western Blots”. Ten thousand cells in 150 μl of EBM-2 medium were then added to the upper chamber of 8 μm pore size cell culture inserts (Falcon) coated with 0.1% gelatin. The lower compartment was filled with 600 μl EBM-2 medium containing various agents. The plates were incubated at 37° C. to allow migration. After 4 hrs, cells were fixed with 4% PFA for 20 min and then stained with crystal violet (Sigma-Aldrich) for 20 min at RT. Migrated cells on the bottom side of the insert membrane were quantified by counting whole area of the insert at 40× magnification. The experiments were carried out in triplicate and repeated three times. BCEC migration was set up similarly, except that wells were coated with FN, cells were suspended in 1% serum media and migration time was 18-24 hrs.

AML12 liver cells = test: AML12 proliferation assay; format: cell-based, mouse
Protocol: as §1

[2] = alone or in combination with growth factors

Compound: O=C1N[C@@H]2[C@@H](O)[C@@H](O)[C@H](O)[C@@H](CO)N2C1=O [Kif, Kifunensine, reference compound]
- activation of ERK and AKT (ERK and AKT): significantly activate

Compound: N[C@H](C=O)[C@@H](O)[C@H](O)[C@H](O)CO [ManN, 2-Amino-2-deoxy-D-mannose]
- growth of A673 (A673): did not promote growth
- hDMVECs growth ([1]; ManN by itself): stimulated
- additivity with VEGF on proliferation ([1]; hDMVECs): dose-dependent additivity with VEGF
- toxicity ([1]; hDMVECs, at 5 mM): minimal toxicity
- cellular toxicity, sensitivity among cell types (ARPE-19 RPE cells; 5 mM level of ManN): least sensitive
- proliferation of human RPEs (ARPE-19 RPE cells; [2]): no increases in proliferation
- growth of U87MG (U87MG): did not promote growth
- HUVEC migration (HUVEC): stimulation of migration
- cellular toxicity, sensitivity among cell types (AML12 liver cells; 5 mM level of ManN): most sensitive
- proliferation of AML12 (AML12 liver cells; [2]): no increases in proliferation
